Results from ChEMBL document CHEMBL1201862, “PubChem BioAssay data set” (2004).
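Cultured in 96-well plates, cells were exposed to test compound for 48 hours across five concentrations. GI50 = concentration required for 50% inhibition of growth.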 The source made the active and inactive calls. Cut-off read from the data, not from the text of the source: active = GI50 up to about 1.1 µM and inactive = higher.

What was measured:
Assay in all cases: inhibition of tumour cell growth, NCI panel, 48 h
A549 = system: A549
IGROV-1 = system: IGROV-1
SNB-19 = system: SNB-19
SF-295 = system: SF-295
EKVX = system: EKVX
HT-29 = system: HT-29
SN12C = system: SN12C
SR = system: SR
KM12 = system: KM12
MOLT-4 = system: MOLT-4
DLD-1 = system: DLD-1
LXFL 529 = system: LXFL 529
DMS-114 = system: DMS-114
NCI-H460 = system: NCI-H460
OVCAR-5 = system: OVCAR-5
NCI-H226 = system: NCI-H226
HCT-15 = system: HCT-15
OVCAR-4 = system: OVCAR-4
NCI-H23 = system: NCI-H23
NCI-H522 = system: NCI-H522
SK-MEL-28 = system: SK-MEL-28
HCT-116 = system: HCT-116
UACC-257 = system: UACC-257
HCC 2998 = system: HCC 2998
SW-620 = system: SW-620
SNB-78 = system: SNB-78
RXF 393 = system: RXF 393
SK-MEL-2 = system: SK-MEL-2
A498 = system: A498
UACC-62 = system: UACC-62
Malme-3M = system: Malme-3M
HOP-62 = system: HOP-62
SNB-75 = system: SNB-75
SK-OV-3 = system: SK-OV-3
U-251 = system: U-251
SK-MEL-5 = system: SK-MEL-5
K562 = system: K562
OVCAR-3 = system: OVCAR-3
TK-10 = system: TK-10
ACHN = system: ACHN
HOP-92 = system: HOP-92
DMS-273 = system: DMS-273
CCRF-CEM = system: CCRF-CEM
HOP-18 = system: HOP-18
M19-MEL = system: M19-MEL
HL-60 = system: HL-60
M14 = system: M14
UO-31 = system: UO-31
COLO 205 = system: COLO 205
KM-20L2 = system: KM-20L2
LOX IMVI = system: LOX IMVI
SF-268 = system: SF-268
786-0 = system: 786-0
CAKI-1 = system: CAKI-1
SF-539 = system: SF-539
OVCAR-8 = system: OVCAR-8
RPMI-8226 = system: RPMI-8226
XF498 = system: XF498

Cn1cc2ccccc2c1-c1nc(F)nc(Oc2ccc3c(c2)CC[C@@H]2C3CC[C@@]3(C)C2CC[C@@H]3O)n1 (stereo partly drawn)
GI50 (A549): 24.8 µM (inactive) | GI50 (IGROV-1): 6.78 µM (inactive) | GI50 (SNB-19): 16.6 µM (inactive) | GI50 (SF-295): 22.6 µM (inactive) | GI50 (EKVX): 15.6 µM (inactive) | GI50 (HT-29): 18.7 µM (inactive) | GI50 (SN12C): 7.87 µM (inactive) | GI50 (SR): 3.36 µM (inactive) | GI50 (KM12): 11.4 µM (inactive) | GI50 (MOLT-4): 4.07 µM (inactive) | GI50 (DLD-1): 7.16 µM (inactive) | GI50 (LXFL 529): 3.71 µM (inactive) | GI50 (DMS-114): 3.66 µM (inactive) | GI50 (NCI-H460): 18.6 µM (inactive) | GI50 (OVCAR-5): 18.6 µM (inactive) | GI50 (NCI-H226): 13.5 µM (inactive) | GI50 (HCT-15): 6.18 µM | GI50 (OVCAR-4): 7.43 µM (inactive) | GI50 (NCI-H23): 10.3 µM (inactive) | GI50 (NCI-H522): 3.4 µM (inactive) | GI50 (SK-MEL-28): 10.4 µM (inactive) | GI50 (HCT-116): 11.7 µM (inactive) | GI50 (UACC-257): 21.3 µM (inactive) | GI50 (HCC 2998): 18.3 µM (inactive) | GI50 (SW-620): 7.35 µM (inactive) | GI50 (SNB-78): 22.3 µM (inactive) | GI50 (RXF 393): 3.08 µM (inactive) | GI50 (SK-MEL-2): 4.2 µM (inactive) | GI50 (A498): 20.5 µM (inactive) | GI50 (UACC-62): 17.1 µM (inactive) | GI50 (Malme-3M): 15.5 µM (inactive) | GI50 (HOP-62): 9.59 µM (inactive) | GI50 (SNB-75): 16.7 µM (inactive) | GI50 (SK-OV-3): 19.3 µM (inactive) | GI50 (U-251): 6.73 µM (inactive) | GI50 (SK-MEL-5): 12.8 µM (inactive) | GI50 (K562): 4.73 µM (inactive) | GI50 (OVCAR-3): 9.33 µM (inactive) | GI50 (TK-10): 13.7 µM (inactive) | GI50 (ACHN): 17.7 µM (inactive) | GI50 (HOP-92): 7.78 µM (inactive) | GI50 (DMS-273): 11.6 µM (inactive) | GI50 (CCRF-CEM): 3.08 µM (inactive) | GI50 (HOP-18): 18.2 µM (inactive) | GI50 (M19-MEL): 7.98 µM (inactive) | GI50 (HL-60): 3.81 µM (inactive) | GI50 (M14): 8.71 µM (inactive) | GI50 (UO-31): 24.4 µM (inactive) | GI50 (COLO 205): 21.8 µM (inactive) | GI50 (KM-20L2): 19.1 µM (inactive) | GI50 (LOX IMVI): 5.79 µM (inactive) | GI50 (SF-268): 9.53 µM (inactive) | GI50 (786-0): 8.91 µM (inactive) | GI50 (CAKI-1): 11.6 µM (inactive) | GI50 (SF-539): 12.8 µM (inactive) | GI50 (OVCAR-8): 7.45 µM (inactive) | GI50 (RPMI-8226): 5.94 µM (inactive)

CC#Cc1c(O)c2c(c(O)c1C#CC)C(=O)c1ccccc1C2=O
GI50 (A549): > 100 µM (inactive) | GI50 (IGROV-1): > 100 µM (inactive) | GI50 (EKVX): > 100 µM (inactive) | GI50 (SN12C): > 100 µM (inactive) | GI50 (SR): > 100 µM (inactive) | GI50 (MOLT-4): > 100 µM (inactive) | GI50 (DLD-1): > 100 µM (inactive) | GI50 (LXFL 529): 11 µM (inactive) | GI50 (DMS-114): > 100 µM (inactive) | GI50 (OVCAR-5): > 100 µM (inactive) | GI50 (XF498): > 100 µM (inactive) | GI50 (HCT-15): > 100 µM | GI50 (OVCAR-4): > 100 µM (inactive) | GI50 (HCC 2998): > 100 µM (inactive) | GI50 (SW-620): > 100 µM (inactive) | GI50 (SK-MEL-2): > 100 µM (inactive) | GI50 (UACC-62): 64.6 µM (inactive) | GI50 (Malme-3M): > 100 µM (inactive) | GI50 (HOP-62): > 100 µM (inactive) | GI50 (SK-OV-3): > 100 µM (inactive) | GI50 (U-251): > 100 µM (inactive) | GI50 (SK-MEL-5): > 100 µM (inactive) | GI50 (K562): > 100 µM (inactive) | GI50 (TK-10): > 100 µM (inactive) | GI50 (ACHN): > 100 µM (inactive) | GI50 (DMS-273): > 100 µM (inactive) | GI50 (CCRF-CEM): > 100 µM (inactive) | GI50 (M19-MEL): > 100 µM (inactive) | GI50 (HL-60): > 100 µM (inactive) | GI50 (M14): > 100 µM (inactive) | GI50 (COLO 205): > 100 µM (inactive) | GI50 (KM-20L2): > 100 µM (inactive) | GI50 (LOX IMVI): 93.5 µM (inactive) | GI50 (786-0): > 100 µM (inactive) | GI50 (CAKI-1): > 100 µM (inactive) | GI50 (OVCAR-8): > 100 µM (inactive) | GI50 (RPMI-8226): 54.5 µM (inactive)

CNc1ccc([N+](=O)[O-])c2c(NCCCN(C)C)ccnc12
GI50 (A549): > 100 µM (inactive) | GI50 (IGROV-1): > 100 µM (inactive) | GI50 (SNB-19): > 100 µM (inactive) | GI50 (SF-295): > 100 µM (inactive) | GI50 (EKVX): > 100 µM (inactive) | GI50 (HT-29): > 100 µM (inactive) | GI50 (SN12C): > 100 µM (inactive) | GI50 (SR): > 100 µM (inactive) | GI50 (KM12): > 100 µM (inactive) | GI50 (MOLT-4): > 100 µM (inactive) | GI50 (DMS-114): > 100 µM (inactive) | GI50 (NCI-H460): > 100 µM (inactive) | GI50 (OVCAR-5): > 100 µM (inactive) | GI50 (NCI-H226): > 100 µM (inactive) | GI50 (XF498): > 100 µM (inactive) | GI50 (HCT-15): > 100 µM | GI50 (OVCAR-4): > 100 µM (inactive) | GI50 (NCI-H23): 99.1 µM (inactive) | GI50 (NCI-H522): > 100 µM (inactive) | GI50 (SK-MEL-28): > 100 µM (inactive) | GI50 (HCT-116): > 100 µM (inactive) | GI50 (UACC-257): > 100 µM (inactive) | GI50 (HCC 2998): > 100 µM (inactive) | GI50 (SW-620): > 100 µM (inactive) | GI50 (SNB-78): 7.8 µM (inactive) | GI50 (SK-MEL-2): > 100 µM (inactive) | GI50 (Malme-3M): > 100 µM (inactive) | GI50 (HOP-62): > 100 µM (inactive) | GI50 (SK-OV-3): > 100 µM (inactive) | GI50 (U-251): > 100 µM (inactive) | GI50 (K562): > 100 µM (inactive) | GI50 (OVCAR-3): > 100 µM (inactive) | GI50 (TK-10): > 100 µM (inactive) | GI50 (ACHN): > 100 µM (inactive) | GI50 (DMS-273): > 100 µM (inactive) | GI50 (CCRF-CEM): > 100 µM (inactive) | GI50 (M19-MEL): > 100 µM (inactive) | GI50 (HL-60): > 100 µM (inactive) | GI50 (M14): > 100 µM (inactive) | GI50 (UO-31): > 100 µM (inactive) | GI50 (COLO 205): > 100 µM (inactive) | GI50 (KM-20L2): > 100 µM (inactive) | GI50 (LOX IMVI): > 100 µM (inactive) | GI50 (SF-268): > 100 µM (inactive) | GI50 (786-0): > 100 µM (inactive) | GI50 (CAKI-1): > 100 µM (inactive) | GI50 (SF-539): > 100 µM (inactive) | GI50 (OVCAR-8): > 100 µM (inactive) | GI50 (RPMI-8226): > 100 µM (inactive)
